Patent US20250099448A1, “HETEROCYCLIC COMPOUNDS” (Hoffmann-La Roche Inc., priority 2022, published 2025)

These compounds were tested against T1, MAGL protein (Homo sapiens, UniProt Q99685) (assay: 2-AG assay: MAGL inhibitory activity by hydrolysis of 2-arachidonoylglycerol to arachidonic acid, followed by mass spectrometry). Conditions: 8 μM 2-arachidonoylglycerol, 15 min preincubation, 30 min reaction at RT, RapidFire MS readout.
T1 sequence (Q99685 1-303): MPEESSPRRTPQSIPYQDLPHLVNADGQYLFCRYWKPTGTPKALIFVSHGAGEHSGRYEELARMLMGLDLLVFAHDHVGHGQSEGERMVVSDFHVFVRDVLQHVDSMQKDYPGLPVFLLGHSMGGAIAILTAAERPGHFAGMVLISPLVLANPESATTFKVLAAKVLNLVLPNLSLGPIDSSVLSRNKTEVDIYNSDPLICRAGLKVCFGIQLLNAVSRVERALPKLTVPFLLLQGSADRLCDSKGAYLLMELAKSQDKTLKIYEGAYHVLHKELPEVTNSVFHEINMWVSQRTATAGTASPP
Format: biochemical
Outline: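 Activity was measured by RapidFire SPE–triple-quad MS as the ratio of arachidonic acid to d8-arachidonic acid after 2-AG hydrolysis (8 μM substrate, 30 min, RT, acetonitrile quench). Compounds, tested from 12.5 μM down to […], were first preincubated 15 min with MAGL in TRIS/EDTA/Tween-20 buffer containing 2.5% DMSO.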

SMILES	IC50 [nM]
O=C(N1CC(C23CC(c4cccc(OC(F)(F)F)c4)(C2)C3)C1)N1CC2(CC(c3nc(C4(O)CC4)n[nH]3)C2)C1 [compound 529]	0.31
Cn1cc(CC2CC3(C2)CN(C(=O)N2CC4(CC(c5nc(C6(O)CC6)n[nH]5)C4)C2)C3)c(C(F)(F)F)n1 [compound 810]	1.14
Cn1ncc(C(F)(F)F)c1CN1CC2(C1)CN(C(=O)N1CC3(CC(c4nc(C5CC5)n[nH]4)C3)C1)C2 [compound 664]	2.74
O=C(N1CC2(CC(Cc3ccc(C(F)(F)F)nn3)C2)C1)N1CC2(CC(c3nnc(C4CC4)[nH]3)C2)C1 [compound 22]	0.8
O=C(N1CC2(CC(Cc3nnc(C4(C(F)(F)F)CC4)o3)C2)C1)N1CC2(CC(c3nc(C4CC(F)(F)C4)n[nH]3)C2)C1 [compound 738]	328
Cn1ncc(OC2CC3(C2)CN(C(=O)N2CC4(CC(c5nc(C6CC6)n[nH]5)C4)C2)C3)c1C(F)(F)F [compound 592]	1.38
O=C(N1CC(NCc2ccc(OC(F)(F)F)cc2)C1)N1CC2(CC(c3nnc(C4CC4)[nH]3)C2)C1 [compound 191]	45.6
O=C(N1CC(c2cnc(N3CC[C@H](C(F)(F)F)C3)nc2)C1)N1CC2(CC(c3nc(C4CC4)n[nH]3)C2)C1 (single isomer, unassigned) [compound 266]	2.93
O=C(N1CC2(CC(c3nc(C4CC4)n[nH]3)C2)C1)N1CC2(CC(n3cnc(C4CC4)n3)C2)C1 [compound 746]	8.64
O=C(N1CC2(CC(Cc3cc(C(F)F)[nH]n3)C2)C1)N1CC2(CC(c3nc(C4CC(F)(F)C4)n[nH]3)C2)C1 [compound 495]	140
O=C(N1CC2(CC(Cc3ccc(S(=O)(=O)C(F)(F)F)cc3)C2)C1)N1CC2(CC(c3nc(C4CC(F)(F)C4)n[nH]3)C2)C1 [compound 526]	4.6
O=C(N1CC2(CC(c3nc(C4CC4)n[nH]3)C2)C1)N1CC2(CN(Cc3cnn(C(F)F)c3)C2)C1 [compound 628]	149
O=C(N1CC2(CC(Cc3ccc(OC(F)(F)F)nc3)C2)C1)N1CC2(CC(c3nc(C4COC4)n[nH]3)C2)C1 [compound 769]	11.8
O=C(N1CC2(CC(c3nc(C4CC4)n[nH]3)C2)C1)N1CC2(CN(Cc3ccc(C(F)(F)F)cc3F)C2)C1 [compound 584]	0.48
O=C(N1CC(CNS(=O)(=O)c2cccc(C(F)(F)F)c2)C1)N1CC2(CC(c3nnc(C4(O)CC4)[nH]3)C2)C1 [compound 211]	136
O=C(N1CC2(CC(Cc3ccc(F)cn3)C2)C1)N1CC2(CC(c3nnc(C4(O)CC4)[nH]3)C2)C1 [compound 44]	2.24
O=C(N1CC(c2cnc(OCC3(C(F)(F)F)CC3)cn2)C1)N1CC2(CC(c3nc(C4(F)CC4)n[nH]3)C2)C1 [compound 431]	0.39
O=C(N1CC2(CC(c3ccc(C(F)(F)F)nc3)C2)C1)N1CC2(CC(c3nc(C4CC4)n[nH]3)C2)C1 [compound 805]	4.73
CS(=O)(=O)c1cc(CC2CC3(C2)CN(C(=O)N2CC4(CC(c5nnc(C6CC6)[nH]5)C4)C2)C3)ccc1C(F)(F)F [compound 41]	0.24

SMILES	IC50 [nM]
N#Cc1cc(C(F)(F)F)ccc1CC1CC2(C1)CN(C(=O)N1CC3(CC(c4nnc(C5CC5)[nH]4)C3)C1)C2 [compound 556]	0.45
CS(=O)(=O)c1cc(F)ccc1C12CC(C3CN(C(=O)N4CC5(CC(c6nc(C7CC7)n[nH]6)C5)C4)C3)(C1)C2 [compound 685]	0.96
Cc1sc(CN2CC3(C2)CN(C(=O)N2CC4(CC(c5nc(C6CC6)n[nH]5)C4)C2)C3)nc1C(F)(F)F [compound 458]	22.8
NC(=O)c1ccc(CC2CC3(C2)CN(C(=O)N2CC4(CC(c5nc(C6CC6)n[nH]5)C4)C2)C3)cc1OC(F)(F)F [compound 913]	0.44
CS(=O)(=O)c1ccc(C2CC3(C2)CN(C(=O)N2CC4(CC(c5nnc(C6CC6)[nH]5)C4)C2)C3)cc1 [compound 939]	3.41
CC(C)(C)Cc1nnc(C23CC(C4CCN(C(=O)N5CC6(CC(c7nc(C8(O)CC8)n[nH]7)C6)C5)CC4)(C2)C3)o1 [compound 498]	195
O=C(N1CC2(CC(c3nc(C4CC4)n[nH]3)C2)C1)N1CC2(CN(Cc3nc(C(F)(F)F)co3)C2)C1 [compound 693]	24.5
O=C(N1CC2(CC(Oc3cnn(CC(F)(F)F)c3)C2)C1)N1CC2(CC(c3nc(C4CC4)n[nH]3)C2)C1 [compound 631]	10.7
O=C(N1CC2(CC(c3nnc(C4CC4)[nH]3)C2)C1)N1CC2(C1)CN(C(=O)C(F)(F)F)C2 [Example 217, 1-[2-[6-(5-cyclopropyl-4H-1,2,4-triazol-3-yl)-2-azaspiro[3.3]heptane-2-carbonyl]-2,6-diazaspiro[3.3]heptan-6-yl]-2,2,2-trifluoro-ethanone]	3580
O=C(N1C[C@H]2CN(Cc3ccccc3)C[C@H]2C1)N1CC2(CC(c3nnc(C4CC4)[nH]3)C2)C1 [compound 363]	244
O=C(N1CC(c2cnc(N3CC(C(F)(F)F)C3)nc2)C1)N1CC2(CC(c3nnc(C4CC4)[nH]3)C2)C1 [compound 263]	8.21
N=S(=O)(c1ccc(CC2CC3(C2)CN(C(=O)N2CC4(CC(c5nc(C6COC6)n[nH]5)C4)C2)C3)cc1)C(F)(F)F (stereo not drawn) [compound 830]	36.5
O=C(N1CC(c2cnc(NCC3(C(F)(F)F)CC3)cn2)C1)N1CC2(CC(c3nc(C4(F)CC4)n[nH]3)C2)C1 [compound 503]	0.69
Cn1ncc(CC2CC3(C2)CN(C(=O)N2CC4(CC(c5nc(C6CC6)n[nH]5)C4)C2)C3)c1C(F)(F)F [compound 729]	0.09
N=S(=O)(c1ccc(CC2CC3(C2)CN(C(=O)N2CC4(CC(c5nc(C6CC(F)(F)C6)n[nH]5)C4)C2)C3)cc1)C(F)(F)F (stereo not drawn) [compound 603]	34.4
Cc1cc(C23CC(C4CN(C(=O)N5CC6(CC(c7nc(C8CC8)n[nH]7)C6)C5)C4)(C2)C3)[nH]n1 [compound 595]	3.63
O=C(N1CC(C23CC(Oc4ccc(C(F)(F)F)cn4)(C2)C3)C1)N1CC2(CC(c3nc(C4CC4)n[nH]3)C2)C1 [compound 736]	1.65
CC1(NCC2CC3(C2)CN(C(=O)N2CC4(CC(c5nnc(C6CC6)[nH]5)C4)C2)C3)CS(=O)(=O)C1 [compound 357]	25.6
O=C(N1CC(C23CC(Cc4ccc(C(F)(F)F)nc4)(C2)C3)C1)N1CC2(CC(c3nc(C4CC4)n[nH]3)C2)C1 [compound 866]	19.1

SMILES	IC50 [nM]
CS(=O)(=O)c1cc(OC(F)(F)F)ccc1OCC1CCN(C(=O)N2CC3(CC(c4nnc(C5CC5)[nH]4)C3)C2)CC1 [Example 917, [6-(5-cyclopropyl-4H-1,2,4-triazol-3-yl)-2-azaspiro[3.3]heptan-2-yl]-[4-[[2-mesyl-4-(trifluoromethoxy)phenoxy]methyl]piperidino]methanone]	237
O=C(N1CC2(CC(Cc3ccc(C(F)(F)F)nc3)C2)C1)N1CC2(CC(c3nnc(C4CC4)[nH]3)C2)C1 [compound 5]	0.16
CS(=O)(=O)c1ccccc1C12CC(C3CN(C(=O)N4CC5(CC(c6nc(C7CC7)n[nH]6)C5)C4)C3)(C1)C2 [compound 909]	0.51
N#Cc1cnn(CC2CC3(C2)CN(C(=O)N2CC4(CC(c5nc(C6(O)CC6)n[nH]5)C4)C2)C3)c1 [compound 719]	68.9
O=C(N1CC2(CC(c3nc(C4CC4)n[nH]3)C2)C1)N1CC2(CN(Cc3nccn3C(F)(F)F)C2)C1 [compound 709]	24.3
O=C(N1CC2(CCN(S(=O)(=O)C34CC(C(F)(F)F)(C3)C4)CC2)C1)N1CC2(CC(c3nnc(C4(O)CC4)[nH]3)C2)C1 [compound 238]	354
O=C(N1CC(CNS(=O)(=O)c2ccc(C(F)(F)F)cc2)C1)N1CC2(CC(c3nnc(C4CC4)[nH]3)C2)C1 [compound 209]	316
CS(=O)(=O)c1ccc(CC2CC3(C2)CN(C(=O)N2CC4(CC(c5nc(C6COC6)n[nH]5)C4)C2)C3)cc1 [compound 817]	180
NC1(c2nnc(C3CC4(C3)CN(C(=O)N3CC5(CC(Cc6ccc(F)cc6C(F)(F)F)C5)C3)C4)[nH]2)CC1 [Example 636]	0.03
O=C(N1CC(c2cnc(C3(C(F)(F)F)CC3)cn2)C1)N1CC2(CC(c3nnc(C4CC4)[nH]3)C2)C1 [compound 233]	13.8
CS(=N)(=O)c1cc(CC2CC3(C2)CN(C(=O)N2CC4(CC(c5nc(C6CC6)n[nH]5)C4)C2)C3)cc(C(F)(F)F)c1 (stereo not drawn) [compound 660]	0.79
CS(=O)(=O)c1cc(CC2CC3(C2)CN(C(=O)N2CC4(CC(c5nnc(C6(O)CC6)[nH]5)C4)C2)C3)ccc1C(F)(F)F [compound 42]	0.88
N#Cc1cc(CC2CC3(C2)CN(C(=O)N2CC4(CC(c5nc(C6(F)CC6)n[nH]5)C4)C2)C3)ccc1C(F)(F)F [compound 585]	0.06
O=C(N1CC2(CC(c3nc(C4CC(F)(F)C4)n[nH]3)C2)C1)N1CC2(CN(Cc3cnc(C(F)(F)F)cn3)C2)C1 [compound 750]	445
CS(=O)(=O)c1cccc(COC2CN(C(=O)N3CC4(CC(c5nnc(C6CC6)[nH]5)C4)C3)C2)c1 [compound 334]	272
O=C(N1CC2(CC(Cn3cc(OC(F)(F)F)ccc3=O)C2)C1)N1CC2(CC(c3nc(C4CC4)n[nH]3)C2)C1 [compound 757]	3.77
COc1cc(Cl)ccc1CN(C)CC1CN(C(=O)N2CC3(CC(c4nnc(C5CC5)[nH]4)C3)C2)C1 [compound 894]	77.5
O=C(N1CC2(CC(Oc3ccc(C(F)(F)F)nn3)C2)C1)N1CC2(CC(c3nnc(C4(O)CC4)[nH]3)C2)C1 [compound 79]	43.4
Cc1cc(C(F)F)nn1CC1CC2(C1)CN(C(=O)N1CC3(CC(c4nc(C5CC5)n[nH]4)C3)C1)C2 [compound 818]	0.59
